Measured values from ChEMBL document CHEMBL5614367, “Hydroxamic acid hybrids: Histone deacetylase inhibitors with anticancer therapeutic potency” (Eur J Med Chem, 2023).

How the values were obtained:
Histone deacetylase 3 = Histone deacetylase 3 (Homo sapiens, UniProt O15379); test: Inhibition of HDAC3 (unknown origin)
K562 = test: Cytotoxicity against human K562 cells assessed as inhibition of cell growth measured after 72 hrs by CellTiter-Glo luminescent viability assay; type: functional, cell-based; details: K562, 72 h
[1] = Half life in tumor of female SCID mouse xenografted with human Daudi cells at 25 to 100 mg/kg, iv measured upto 24 hrs by LC-MS/MS analysis; type: ADME, organism-based, Neoplasm; details: dose 25-100 mg/kg
[2] = Cmax in tumor of female SCID mouse xenografted with human Daudi cells at 25 to 100 mg/kg, iv measured upto 24 hrs by LC-MS/MS analysis; type: ADME, organism-based, Neoplasm; details: dose 25-100 mg/kg
NCI-H358 = test: Cytotoxicity against human NCI-H358 cells assessed as inhibition of cell growth measured after 72 hrs by CellTiter-Glo luminescent viability assay; type: functional, cell-based; details: NCI-H358, 72 h
U-937 = test: Cytotoxicity against human U-937 cells assessed as inhibition of cell growth measured after 72 hrs by CellTiter-Glo luminescent viability assay; type: functional, cell-based; details: U-937, 72 h
SW-620 = test: Cytotoxicity against human SW620 cells assessed as inhibition of cell growth measured after 72 hrs by CellTiter-Glo luminescent viability assay; type: functional, cell-based; details: SW-620, 72 h
[3] = Inhibition of PI3K (unknown origin); set-up: species or system Homo sapiens
[4] = target: Polyamine deacetylase HDAC10 (Homo sapiens, UniProt Q969S8); test: Inhibition of HDAC10 (unknown origin)
Polyamine deacetylase HDAC10, sequence (Q969S8 whole entry): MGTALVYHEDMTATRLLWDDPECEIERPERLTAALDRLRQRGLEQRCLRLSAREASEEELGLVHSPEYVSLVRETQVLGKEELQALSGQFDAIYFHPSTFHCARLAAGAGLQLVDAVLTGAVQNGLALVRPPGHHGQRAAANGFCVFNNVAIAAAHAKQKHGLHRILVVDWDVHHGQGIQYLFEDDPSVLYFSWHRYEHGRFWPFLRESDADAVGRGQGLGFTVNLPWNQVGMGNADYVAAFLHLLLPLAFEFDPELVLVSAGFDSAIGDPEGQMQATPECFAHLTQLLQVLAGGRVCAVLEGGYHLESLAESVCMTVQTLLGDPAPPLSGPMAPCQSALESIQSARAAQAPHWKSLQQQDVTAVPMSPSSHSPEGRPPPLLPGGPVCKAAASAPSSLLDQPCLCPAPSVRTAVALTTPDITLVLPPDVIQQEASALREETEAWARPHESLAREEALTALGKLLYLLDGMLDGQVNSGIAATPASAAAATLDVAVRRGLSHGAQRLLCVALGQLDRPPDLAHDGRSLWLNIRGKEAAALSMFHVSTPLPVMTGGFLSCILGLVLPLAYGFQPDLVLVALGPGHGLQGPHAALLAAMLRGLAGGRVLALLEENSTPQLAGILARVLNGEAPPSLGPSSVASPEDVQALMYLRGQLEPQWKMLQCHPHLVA

Histone deacetylase 2 = Histone deacetylase 2 (Homo sapiens, UniProt Q92769); test: Inhibition of HDAC2 (unknown origin)
Histone deacetylase 2, sequence (Q92769 whole entry): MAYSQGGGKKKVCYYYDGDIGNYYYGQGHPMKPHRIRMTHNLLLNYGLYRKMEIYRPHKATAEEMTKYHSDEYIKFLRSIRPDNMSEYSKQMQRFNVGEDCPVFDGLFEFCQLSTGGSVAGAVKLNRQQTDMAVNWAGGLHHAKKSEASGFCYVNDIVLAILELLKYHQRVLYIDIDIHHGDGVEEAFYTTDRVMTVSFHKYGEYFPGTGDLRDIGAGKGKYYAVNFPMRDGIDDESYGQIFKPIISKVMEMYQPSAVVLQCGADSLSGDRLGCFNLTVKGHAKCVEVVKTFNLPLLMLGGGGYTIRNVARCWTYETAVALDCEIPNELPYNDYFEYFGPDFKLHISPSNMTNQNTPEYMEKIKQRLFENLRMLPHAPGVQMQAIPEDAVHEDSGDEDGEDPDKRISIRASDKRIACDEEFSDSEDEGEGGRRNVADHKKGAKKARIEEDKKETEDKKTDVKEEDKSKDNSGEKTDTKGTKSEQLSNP

MC-38 = test: Cytotoxicity against mouse MC38 cells assessed as inhibition of cell growth measured after 72 hrs by CellTiter-Glo luminescent viability assay; type: functional, cell-based; details: MC-38, 72 h
LoVo = test: Cytotoxicity against human LoVo cells assessed as inhibition of cell growth measured after 72 hrs by CellTiter-Glo luminescent viability assay; type: functional, cell-based
TMD8 = test: Cytotoxicity against human TMD8 cells assessed as inhibition of cell growth measured after 72 hrs by CellTiter-Glo luminescent viability assay; type: functional, cell-based; details: TMD8, 72 h
HCT-116 = test: Cytotoxicity against human HCT-116 cells assessed as inhibition of cell growth measured after 72 hrs by CellTiter-Glo luminescent viability assay; type: functional, cell-based; details: HCT-116, 72 h
Calu-6 = test: Cytotoxicity against human Calu-6 cells assessed as inhibition of cell growth measured after 72 hrs by CellTiter-Glo luminescent viability assay; type: functional, cell-based; details: Calu-6, 72 h
THP-1 = test: Cytotoxicity against human THP-1 cells assessed as inhibition of cell growth measured after 72 hrs by CellTiter-Glo luminescent viability assay; type: functional, cell-based; details: THP-1, 72 h
NCI-H2122 = test: Cytotoxicity against human NCI-H2122 cells assessed as inhibition of cell growth measured after 72 hrs by CellTiter-Glo luminescent viability assay; type: functional, cell-based; details: NCI-H2122, 72 h
Ramos = test: Cytotoxicity against human Ramos cells assessed as inhibition of cell growth measured after 72 hrs by CellTiter-Glo luminescent viability assay; type: functional, cell-based
NCI-H460 = test: Cytotoxicity against human NCI-H460 cells assessed as inhibition of cell growth measured after 72 hrs by CellTiter-Glo luminescent viability assay; type: functional, cell-based; details: NCI-H460, 72 h
Histone deacetylase 11 = Histone deacetylase 11 (Homo sapiens, UniProt Q96DB2); test: Inhibition of HDAC11 (unknown origin)
Histone deacetylase 11, sequence (Q96DB2 whole entry): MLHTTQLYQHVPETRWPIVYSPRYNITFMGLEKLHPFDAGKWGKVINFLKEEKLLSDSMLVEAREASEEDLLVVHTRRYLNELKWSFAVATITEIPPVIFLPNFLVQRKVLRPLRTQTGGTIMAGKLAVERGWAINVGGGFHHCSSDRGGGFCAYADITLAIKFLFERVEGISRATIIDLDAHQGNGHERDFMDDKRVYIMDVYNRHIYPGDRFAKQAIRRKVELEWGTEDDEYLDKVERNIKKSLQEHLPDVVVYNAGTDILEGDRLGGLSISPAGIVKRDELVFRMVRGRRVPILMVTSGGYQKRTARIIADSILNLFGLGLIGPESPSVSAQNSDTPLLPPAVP

[5] = AUC in tumor of female SCID mouse xenografted with human Daudi cells at 25 to 100 mg/kg, iv measured upto 24 hrs by LC-MS/MS analysis; type: ADME, organism-based, Neoplasm; details: in vivo, dose 25-100 mg/kg
COLO 205 = test: Cytotoxicity against human COLO 205 cells assessed as inhibition of cell growth measured after 72 hrs by CellTiter-Glo luminescent viability assay; type: functional, cell-based; details: COLO 205, 72 h
PC-9 = test: Cytotoxicity against human PC-9 cells assessed as inhibition of cell growth measured after 72 hrs by CellTiter-Glo luminescent viability assay; type: functional, cell-based; details: PC-9, 72 h
NCI-H1975 = test: Cytotoxicity against human NCI-H1975 cells assessed as inhibition of cell growth measured after 72 hrs by CellTiter-Glo luminescent viability assay; type: functional, cell-based; details: NCI-H1975, 72 h
Histone deacetylase 1 = Histone deacetylase 1 (Homo sapiens, UniProt Q13547); test: Inhibition of HDAC1 (unknown origin)
Histone deacetylase 1, sequence (Q13547 whole entry): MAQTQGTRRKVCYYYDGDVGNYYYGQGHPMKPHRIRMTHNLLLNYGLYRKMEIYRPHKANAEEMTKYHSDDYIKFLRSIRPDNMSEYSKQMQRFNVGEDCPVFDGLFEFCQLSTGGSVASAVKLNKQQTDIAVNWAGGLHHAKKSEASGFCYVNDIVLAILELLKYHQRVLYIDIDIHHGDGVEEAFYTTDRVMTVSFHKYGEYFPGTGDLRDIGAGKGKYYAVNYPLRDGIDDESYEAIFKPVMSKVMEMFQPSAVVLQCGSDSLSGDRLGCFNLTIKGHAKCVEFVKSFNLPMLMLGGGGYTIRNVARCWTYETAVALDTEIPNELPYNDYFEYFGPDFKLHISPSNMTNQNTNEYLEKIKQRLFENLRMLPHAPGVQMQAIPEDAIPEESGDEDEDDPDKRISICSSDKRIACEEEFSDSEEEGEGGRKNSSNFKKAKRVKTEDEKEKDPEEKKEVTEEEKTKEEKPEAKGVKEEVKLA

SW480 = test: Cytotoxicity against human SW480 cells assessed as inhibition of cell growth measured after 72 hrs by CellTiter-Glo luminescent viability assay; type: functional, cell-based; details: SW480, 72 h
Daudi = test: Cytotoxicity against human Daudi cells assessed as inhibition of cell growth measured after 72 hrs by CellTiter-Glo luminescent viability assay; type: functional, cell-based
DU-145 [6] = test: cells; type: functional, cell-based; details: Homo sapiens, DU-145, 48 h; pooled result: one value given for 6 cell lines, strains, targets or settings
[7] = target: Epidermal growth factor receptor (Homo sapiens) (UniProt P00533); test: Inhibition of EGFR (unknown origin) at 10 uM preincubated for 0.5 hrs followed by substrate addition and measured after 1 hr by ADP-Glo assay relative to control; details: time 1.5 hrs
Epidermal growth factor receptor (Homo sapiens), sequence (P00533 whole entry): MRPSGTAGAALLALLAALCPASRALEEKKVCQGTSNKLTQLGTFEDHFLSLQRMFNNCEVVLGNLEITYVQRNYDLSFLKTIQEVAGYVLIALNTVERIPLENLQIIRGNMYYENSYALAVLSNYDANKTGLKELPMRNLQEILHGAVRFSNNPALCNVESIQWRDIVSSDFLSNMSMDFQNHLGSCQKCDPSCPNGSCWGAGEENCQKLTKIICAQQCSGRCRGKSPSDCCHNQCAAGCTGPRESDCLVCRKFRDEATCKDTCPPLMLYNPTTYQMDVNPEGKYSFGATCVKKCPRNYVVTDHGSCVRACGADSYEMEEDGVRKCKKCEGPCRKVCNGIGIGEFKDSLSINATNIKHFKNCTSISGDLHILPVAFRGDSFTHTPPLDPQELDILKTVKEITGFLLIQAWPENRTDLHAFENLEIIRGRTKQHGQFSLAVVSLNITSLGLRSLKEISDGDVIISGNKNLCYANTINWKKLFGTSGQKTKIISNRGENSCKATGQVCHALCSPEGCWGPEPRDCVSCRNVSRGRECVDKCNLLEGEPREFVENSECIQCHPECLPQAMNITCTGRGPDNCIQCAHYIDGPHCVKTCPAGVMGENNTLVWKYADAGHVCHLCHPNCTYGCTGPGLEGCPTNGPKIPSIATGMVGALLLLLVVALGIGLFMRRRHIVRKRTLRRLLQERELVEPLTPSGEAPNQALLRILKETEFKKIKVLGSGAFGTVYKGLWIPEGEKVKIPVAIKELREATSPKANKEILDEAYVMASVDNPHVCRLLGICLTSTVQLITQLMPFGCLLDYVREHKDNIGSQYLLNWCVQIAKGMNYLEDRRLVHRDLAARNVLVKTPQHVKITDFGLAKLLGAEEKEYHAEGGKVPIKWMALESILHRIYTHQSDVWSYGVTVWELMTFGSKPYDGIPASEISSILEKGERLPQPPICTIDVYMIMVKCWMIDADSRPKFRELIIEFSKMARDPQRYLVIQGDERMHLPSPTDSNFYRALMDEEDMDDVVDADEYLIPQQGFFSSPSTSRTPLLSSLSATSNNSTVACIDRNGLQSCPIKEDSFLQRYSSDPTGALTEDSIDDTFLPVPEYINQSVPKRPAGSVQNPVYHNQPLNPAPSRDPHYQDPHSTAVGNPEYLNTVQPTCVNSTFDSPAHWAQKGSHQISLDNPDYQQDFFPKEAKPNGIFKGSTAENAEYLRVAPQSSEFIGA

Histone deacetylase = test: Inhibition of human HDAC extracted from human HeLa cell nuclear extract incubated for 30 mins by fluorometric analysis; type: subcellular, Nucleus
BXPC-3 [8] = test: Antiproliferative activity against human BXPC-3 cells assessed as inhibition of cell growth measured after 72 hrs by MTT assay; type: functional, cell-based; details: BXPC-3, 72 h
HPAC = test: Antiproliferative activity against human HPAC cells assessed as inhibition of cell growth measured after 72 hrs by MTT assay; type: functional, cell-based
A549 = test: Antitumor activity against human A549 cells xenografted in assessed as reduction in tumor growth at 50 mg/kg, po administered via oral gavage 5 days on/2 days off dosing and measured on day 10,25 and 31 relative to control; type: functional; set-up: scale not given: the % may be the effect or the level left; details: time 31 day
PC-3 = test: Antiproliferative activity against human PC-3 cells assessed as inhibition of cell growth measured after 72 hrs by SRB assay; type: functional, cell-based; details: PC-3, 72 h
KYSE-150 cell line = test: Antiproliferative activity against human KYSE-150 cells assessed as inhibition of cell growth measured after 72 hrs by CCK-8 assay; type: functional, cell-based; details: KYSE-150, 72 h
[9] = Antitumor activity against human Castration-resistant LuCaP 35CR cells xenografted in male CB17 SCID mouse assessed as inhibition of tumor growth at 100 mg/kg, po administered via oral gavage measured after 19 days relative to control; type: functional; details: 456 h, time 19 day
LNCaP C4-2 = test: Antiproliferative activity against human C4-2 cells assessed as inhibition of cell growth measured after 72 hrs by SRB assay; type: functional, cell-based; details: LNCaP C4-2, 72 h
MIA PaCa-2 = test: Antiproliferative activity against human MIA PaCa-2 cells assessed as inhibition of cell growth measured after 72 hrs by MTT assay; type: functional, cell-based; details: MIA PaCa-2, 72 h
KYSE-450 [10] = test: Antitumor activity against human KYSE-450 cells xenografted in male C57BL/6 nude mouse assessed as reduction in tumor growth at 200 mg/kg, po administered for 5 days followed by 2 off schedule and measured every third day for 31 days relative to control; type: functional; set-up: scale not given: the % may be the effect or the level left; details: time 31 day
LAPC4 = test: Antiproliferative activity against human LAPC4 cells assessed as inhibition of cell growth measured after 72 hrs by SRB assay; type: functional, cell-based; details: LAPC4, 72 h
KYSE-450 [11] = test: Antiproliferative activity against human KYSE-450 cells assessed as inhibition of cell growth measured after 72 hrs by CCK-8 assay; type: functional, cell-based; details: KYSE-450, 72 h
KYSE-30 = test: Antiproliferative activity against human KYSE-30 cells assessed as inhibition of cell growth measured after 72 hrs by CCK-8 assay; type: functional, cell-based; details: KYSE-30, 72 h
CFPAC-1 = test: Antiproliferative activity against human CFPAC-1 cells assessed as inhibition of cell growth measured after 72 hrs by MTT assay; type: functional, cell-based; details: CFPAC-1, 72 h
LNCaP = test: Antiproliferative activity against human LNCaP cells assessed as inhibition of cell growth measured after 72 hrs by SRB assay; type: functional, cell-based
KYSE-510 = test: Antiproliferative activity against human KYSE-510 cells assessed as inhibition of cell growth measured after 72 hrs by CCK-8 assay; type: functional, cell-based; details: KYSE-510, 72 h
ASPC1 = test: Antiproliferative activity against human ASPC1 cells assessed as inhibition of cell growth measured after 72 hrs by MTT assay; type: functional, cell-based; details: ASPC1, 72 h
PANC-1 = test: Antiproliferative activity against human PANC-1 cells assessed as inhibition of cell growth measured after 72 hrs by MTT assay; type: functional, cell-based; details: PANC-1, 72 h
BXPC-3 [12] = test: Antitumor activity against human BXPC-3 cells xenografted in female BALB/c nude mouse assessed as tumor inhibition rate by measuring T/C ratio at 10 mg/kg, ip administered for 20 days and measured every 1 to 3 days relative to control; type: functional; details: time 20 day
LNCaP C4-2B = test: Antiproliferative activity against human LNCaP C4-2B cells assessed as inhibition of cell growth measured after 72 hrs by SRB assay; type: functional, cell-based
DU-145 [13] = test: Antiproliferative activity against human DU-145 cells assessed as inhibition of cell growth measured after 72 hrs by SRB assay; type: functional, cell-based; details: DU-145, 72 h
CWR22R = test: Antiproliferative activity against human 22Rv1 cells assessed as inhibition of cell growth measured after 72 hrs by SRB assay; type: functional, cell-based; details: 22Rv1, 72 h

Histone deacetylase 3, sequence (O15379 whole entry): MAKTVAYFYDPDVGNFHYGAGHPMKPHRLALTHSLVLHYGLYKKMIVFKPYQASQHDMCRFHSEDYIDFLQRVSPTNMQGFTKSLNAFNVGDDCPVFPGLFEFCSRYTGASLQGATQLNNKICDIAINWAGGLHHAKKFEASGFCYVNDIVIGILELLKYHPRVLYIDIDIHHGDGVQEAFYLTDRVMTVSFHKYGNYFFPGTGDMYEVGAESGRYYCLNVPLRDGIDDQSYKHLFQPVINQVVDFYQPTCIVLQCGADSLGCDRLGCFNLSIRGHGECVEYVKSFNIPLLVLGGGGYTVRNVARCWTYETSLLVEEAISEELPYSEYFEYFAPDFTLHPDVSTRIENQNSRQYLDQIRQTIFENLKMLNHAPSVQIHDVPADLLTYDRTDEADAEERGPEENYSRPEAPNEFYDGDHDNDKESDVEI

## CNc1ccc(-c2nc(N3CCOCC3)c3sc(CN(C)c4ncc(C(=O)NO)cn4)cc3n2)cn1
Histone deacetylase 3
  IC50: 0.9 nM
K562
  IC50: 0.3 nM
[1]
  half-life: 7.9 h
[2]
  Cmax: 14500 ng/g
NCI-H358
  IC50: 0.3 nM
U-937
  IC50: 0.3 nM
SW-620
  IC50: 0.3 nM
[3]
  IC50: 9.3 nM
[4]
  IC50: 0.9 nM
Histone deacetylase 2
  IC50: 0.9 nM
MC-38
  IC50: 0.3 nM
LoVo
  IC50: 0.3 nM
TMD8
  IC50: 0.3 nM
HCT-116
  IC50: 0.3 nM
Calu-6
  IC50: 0.3 nM
THP-1
  IC50: 0.3 nM
NCI-H2122
  IC50: 0.3 nM
Ramos
  IC50: 0.3 nM
NCI-H460
  IC50: 0.3 nM
Histone deacetylase 11
  IC50: 0.9 nM
[5]
  AUC: 17157.9 ng·h/g
COLO 205
  IC50: 0.3 nM
PC-9
  IC50: 0.3 nM
NCI-H1975
  IC50: 0.3 nM
Histone deacetylase 1
  IC50: 0.9 nM
SW480
  IC50: 0.3 nM
Daudi
  IC50: 0.3 nM

## O=C(CCCCCCC(=O)Nc1ccc2ncnc(Nc3cccc(Cl)c3)c2c1)NO
DU-145 [6]
  IC50: 1180 nM
[7]
  inhibition: 75%
Histone deacetylase
  IC50: 474 nM

## COc1ccc(-c2nc(N3CCOCC3)c3sc(CN(C)c4ncc(C(=O)NO)cn4)cc3n2)cn1 [FIMEPINOSTAT]
BXPC-3 [8]
  IC50: 2 nM
HPAC
  IC50: 2 nM
A549
  Activity: ~80%
PC-3
  IC50: 2 nM
KYSE-150 cell line
  IC50: 2 nM
[9]
  inhibition in vivo at 100 mg/kg: ~60%
LNCaP C4-2
  IC50: 2 nM
MIA PaCa-2
  IC50: 2 nM
KYSE-450 [10]
  Activity: ~65%
LAPC4
  IC50: 2 nM
KYSE-450 [11]
  IC50: 2 nM
KYSE-30
  IC50: 2 nM
CFPAC-1
  IC50: 2 nM
LNCaP
  IC50: 2 nM
KYSE-510
  IC50: 2 nM
ASPC1
  IC50: 2 nM
PANC-1
  IC50: 2 nM
BXPC-3 [12]
  T/C: 52%
LNCaP C4-2B
  IC50: 2 nM
DU-145 [13]
  IC50: 2 nM
CWR22R
  IC50: 2 nM
